In article PMC10912632, “Racemization of the substrate and product by serine palmitoyltransferase from Sphingobacterium multivorum yields two enantiomers of the product from D-serine” (The Journal of Biological Chemistry, 2024):
Values joined by “and” are separate entries in the source; they are usually repeats but may differ in a detail not shown here. Equal entries are not always repeated. Where two headings read alike, the source gives them in different places. Marks after values point to notes of the source that are not given here.

Key:
[1] = target: T1, Sphingobacterium multivorum SPT (Sphingobacterium multivorum, UniProt A7BFV6); test: Spectroscopic titration of SPT with amino acids (422 nm absorption, external aldimine formation); format: binding; details: 10 μM SPT
T1 construct: harboring the plasmid expressing the full-length SPT; made in house; host or cells: Escherichia coli BL21 (DE3) pLysS
Method: (§1) Dependency of the reaction rates on amino acid concentrations under the condition of 1 mM palmitoyl-CoA was examined (Table 1). Each LCB product was quantified by the fluorescence intensity based on the standard curve obtained by using the corresponding authentic compound ([23]). The value of apparent catalytic efficiency ( kcatapp/Kmapp ) for D-serine was 0. 0013 min^–1 mM^–1 and was much smaller than that for L-serine ( kcatapp/Kmapp = 3.6 min^–1 mM^–1). Therefore, the KDS production by SPT from D-serine is considered to be negligible at the physiological concentration of D-serine. Next, binding of D-serine to the S. multivorum SPT was examined by spectroscopic titration. When SPT was incubated with D-serine, spectral changes corresponding to the external aldimine formation between PLP and the amino acid were observed (Supporting information).
Figure S1. Spectroscopic titration of the S. multivorum SPT with D-serine or α-methyl-D-serine. (A) Absorption spectra of SPT (10 μM) in the presence of 0, 2.0, 5.0, 9.9, 15, 20, 29, 38, and 48 mM D-serine (lines 1–9, respectively).
(B) Absorption spectra of SPT (10 μM) in the presence of 0, 3.0, 6.0, 9.9, 20, 34, 52, 74, and 99 mM α-methyl-D-serine (lines 1–9, respectively).
Determination of dissociation constants (Kd) for amino acids.
The titration assay was carried out as previously reported (1). The changes of the 422 nm-absorption intensities of SPT upon addition of amino acids were plotted against the final concentrations of the amino acids, and the Kd values were calculated by fitting to a hyperbolic saturation curve using Igor Pro 6.37. software (Wave Matrix Inc., Lake Oswego, Oregon, […]
United States). […]

[2] = target: T1, Sphingobacterium multivorum SPT; test: Chiral HPLC of 7-methoxycoumarin-labeled KDS enantiomers after SPT reaction or incubation; format: biochemical; details: 1.3 mM KDS incubated with 230 μM SPT, 37 °C, 120 min
From the text: KDS has a chiral center at the C2 position to which hydrogen, hydroxymethyl, amino, and acyl groups are attached. In the present study, it was necessary to know which optical isomer, (2S)- or (2R)-KDS, was formed from D-serine. In order to detect KDS enantiomers, we developed a new method in which each enantiomer of 7-methoxycoumarin-labeled KDS was separated and quantified by chiral HPLC (Fig. 2A). First, the standard compounds (2S)-2-amino-1-hydroxyoctadecan-3-one (L-serine–type (2S)-KDS) and (2R)-2-amino-1-hydroxyoctadecan-3-one (D-serine–type (2R)-KDS) were chemically synthesized (Supporting information). Next, the conditions for fluorescence labeling and HPLC were examined using these authentic compounds; the successful separation of KDS enantiomers was achieved by 7-methoxycoumarin labeling of the amino group of KDS (Fig. 2B, lines 1–3). The labeled (2S)-KDS and (2R)-KDS were eluted at 7.7 and 8.9 min, respectively, with the calculated separation factor of 1.3 (Fig. 2B, line 3). When the SPT reaction product derived from L-serine was analyzed, two fluorescence peaks were detected (Fig. 2B, line 4). […] Similarly, for the SPT reaction product derived from D-serine, two fluorescence peaks corresponding to 7-methoxycoumarin-labeled (2S)-KDS and 7-methoxycoumarin-labeled (2R)-KDS were detected (Fig. 2B, line 5). […]

[3] = target: T1, Sphingobacterium multivorum SPT; parameters: method as in PMID 23957439; details: 1 mM palmitoyl-CoA; cited from earlier work
[4] = target: T1, Sphingobacterium multivorum SPT; test: TLC/autoradiography analysis of KDS formation; format: biochemical; details: 500 mM serine, 1 mM [1-14C]-palmitoyl-CoA, 100 μM SPT, 37 °C, 60 min
From the text: We previously reported that the KDS formation from D-serine was not detected under physiological assay conditions using S. paucimobilis SPT ([15], [47]). […] Each reaction product was ninhydrin-positive with the specific color and the Rf value, which corresponded to those of a commercial authentic KDS on the TLC plate (Fig. 1A, lanes 2 and 4). […] Such radioactive reaction products were not detected under the reaction condition lacking the amino acid substrate or SPT. The structure of the reaction product derived from each serine enantiomer was confirmed by HPLC/triple quadrupole/linear ion trap mass spectrometry using a commercially available authentic KDS as the standard (Fig. 1C).
Figure 1 Formation of KDS from L-serine and D-serine by the Sphingobacterium multivorum SPT.A, image of the TLC analysis of KDS visualized with ninhydrin reagent: lane 1, extract of the reaction mixture without the amino acid substrate; lane 2, extract of the reaction mixture with L-serine; lane 3, commercial authentic KDS (L-serine–derived, (2S)-KDS); lane 4, extract of the reaction mixture with D-serine; lane 5, extract of the reaction mixture without SPT. The complete reaction mixture contained 500 mM L-/D-serine, 1 mM palmitoyl-CoA, and 100 μM SPT and was incubated at 37 °C for 60 min. […] Radioactivity was incorporated to the reaction product from the substrate [1-^14C]-palmitoyl-CoA. […]

[5] = target: T1, Sphingobacterium multivorum SPT; parameters: method as in PMID 23957439; details: spectroscopic titration; cited from earlier work
[6] = target: T1, Sphingobacterium multivorum SPT; test: Steady-state kinetics of LCB (KDS) formation by SPT; format: biochemical; details: 1 mM palmitoyl-CoA
Method: as §1
The assay was performed as previously reported ([23]). For qualitative analysis, 500 mM of L-serine or D-serine was incubated with 1 mM palmitoyl-CoA and 100 μM SPT in 100 μl of 100 mM potassium phosphate, pH 7.5, at 37 °C for 60 min. [1-^14C] palmitoyl-CoA (20 kBq/μmol) was supplemented into the above reaction mixture as the tracer. The reactions were terminated by addition of the equal volume of 2 N ammonia. Lipids were extracted by successive addition and mixing of 750 μl of chloroform/methanol (1:2, v/v), 250 μl of chloroform, and 250 μl of 1% KCl. Phases were separated by centrifugation, and the organic phase was recovered. […] For the quantitative analysis, the UV-fluorescence intensities of the reaction products on TLC plates were visualized by a Fusion chemiluminescence imaging system using a UV-light box and analyzed by a FUSION Capt software (Vilber Lourmat).
Steady-state kinetic parameters were determined by varying the concentrations of D-serine in the presence of 1 mM palmitoyl-CoA in 100 μl of 100 mM potassium phosphate, pH 7.5, at 37 °C. […] The reaction termination, lipid extraction, TLC analysis, and quantification of the reaction products on TLC plates were described above. […]

[7] = target: T1, Sphingobacterium multivorum SPT; test: Serine racemase assay of SPT (fluorescence derivatization, reverse-phase HPLC); format: biochemical; details: 1 mM D-serine, 47 μM SPT, 37 °C, no palmitoyl-CoA
Method: In order to verify the possibility of conversion between D-serine and L-serine, the serine racemase activity of SPT in the absence of palmitoyl-CoA was examined by the combination of fluorescence labeling and reverse-phase HPLC (Fig. 4).
One millimolar L-serine or D-serine was incubated with or without 47 μM SPT at 37 °C for 24 h. […] The reaction mixture containing 1 mM serine and 47 μM SPT was incubated at 37 °C for 1 to 24 h. […] The reaction mixture contained 1 mM serine and either or both of 1 mM PLP and 47 μM SPT.
Serine racemase assay of SPT was performed by determining the amount of each antipodal serine derivative formed from D-serine or L-serine as previously reported with some modifications ([48]). After D/L-serine was derivatized to fluorescent diastereomer, the enantioselective detection of serine was performed on an HPLC system with a Multi lambda Fluorescence Detector (Waters Corporation). The reaction was carried out at 37 °C for 1 to 24 h in a reaction mixture (100 μl) containing 100 mM Tris/HCl buffer (pH 7.5), 1 mM D/L-serine, and 47 μM SPT with or without 1 mM PLP. […] For fluorescence detection, the excitation and emission wavelengths were 350 nm and 450 nm, respectively. […]

T1 sequence (A7BFV6 whole entry): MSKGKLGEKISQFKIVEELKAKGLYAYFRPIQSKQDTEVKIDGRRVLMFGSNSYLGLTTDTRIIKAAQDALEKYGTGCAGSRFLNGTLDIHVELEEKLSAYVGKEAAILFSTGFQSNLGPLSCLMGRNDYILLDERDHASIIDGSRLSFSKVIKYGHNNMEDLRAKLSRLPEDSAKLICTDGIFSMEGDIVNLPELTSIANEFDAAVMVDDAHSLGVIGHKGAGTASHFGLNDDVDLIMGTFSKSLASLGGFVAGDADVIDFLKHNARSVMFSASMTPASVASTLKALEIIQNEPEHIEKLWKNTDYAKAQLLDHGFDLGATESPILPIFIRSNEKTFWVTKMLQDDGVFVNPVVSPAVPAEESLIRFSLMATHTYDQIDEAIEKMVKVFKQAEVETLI

## C[C@](N)(CO)C(=O)O [α-methyl-L-serine, reference compound]
[1]
  Kd: 8.3 ± 1.8 mM

## C[C@@](N)(CO)C(=O)O [α-methyl-D-serine, reference compound]
[1]
  Kd: 27 ± 2.5 mM

## N[C@H](CCO)C(=O)O [D-homoserine]
[1]
  Kd: 90 ± 8 mM

## CCCCCCCCCCCCCCCC(=O)[C@H](N)CO [(2R)-KDS, (2R)-2-amino-1-hydroxyoctadecan-3-one]
[2]
  SPT-dependent racemization of KDS enantiomer: the racemized product was formed in each case, albeit in a smaller amount

## N[C@@H](CO)C(=O)O [L-serine]
[3]
  Kmapp: 3.6 ± 0.87 ^b mM
  kcatapp: 13 ± 1.0 ^b min^–1
  kcatapp/Kmapp (apparent catalytic efficiency): 3.6 min^–1 mM^–1 and 3.6 ^b min^–1 mM^–1
[4]
  formation of KDS reaction product: the reaction product was formed

## NCC(=O)O [glycine]
[3]
  Kmapp: 77 ± 8.1 ^b mM
  kcatapp: 0.008 ± 0.002 ^b min^–1
  kcatapp/Kmapp (apparent catalytic efficiency): 0.0001 ^b min^–1 mM^–1
[5]
  Kd: 71 ± 5.5 mM

## N[C@@H](CCO)C(=O)O [L-homoserine]
[3]
  Kmapp: 82 ± 14 ^b mM
  kcatapp: 4.5 ± 0.28 ^b min^–1
  kcatapp/Kmapp (apparent catalytic efficiency): 0.055 ^b min^–1 mM^–1
[5]
  Kd: 3.6 ± 0.2 mM

## C[C@H](N)C(=O)O [L-alanine]
[3]
  Kmapp: 110 ± 9.0 ^b mM
  kcatapp: 0.42 ± 0.011 ^b min^–1
  kcatapp/Kmapp (apparent catalytic efficiency): 0.0037 ^b min^–1 mM^–1

## N[C@H](CO)C(=O)O [D-serine]
[6]
  kcatapp/Kmapp (apparent catalytic efficiency): 0.0013 min^–1 mM^–1
[6]; 10 μM SPT, pH 7.5, 37 °C
  Kmapp: 237.7 ± 44.3 mM
  kcatapp: 0.31 ± 0.02 min^–1
[7]
  formation rate of L-serine from D-serine (racemization): 0.0020 min^–1
[4]
  formation of KDS reaction product: the reaction product was formed
[1]
  Kd: 11 ± 1.8 mM

## CCCCCCCCCCCCCCCC(=O)[C@@H](N)CO [(2S)-KDS, (2S)-2-amino-1-hydroxyoctadecan-3-one]
[2]
  SPT-dependent racemization of KDS enantiomer: the racemized product was formed in each case, albeit in a smaller amount
